In the NIST ThermoML archive (doi:10.1021/acs.jced.9b00415):

Assay: xn = mol fraction of the nth substance listed
Conditions: 102 kPa, Liquid; for viscosity: Concentric cylinders viscometry; for mass density: Vibrating tube method

CCCCn1cc[n+](C)c1.O=[N+]([O-])[O-] [1-butyl-3-methylimidazolium nitrate] + CCCCn1cc[n+](C)c1.[Cl-]
Conditions | mass density [kg/m3] | viscosity [mPa·s]
298.15 K, x1 = 0.8 | 1139.9 | 373.6
303.15 K, x1 = 0.8 | 1136.8 | 266.4
308.15 K, x1 = 0.8 | 1133.7 | 194.9
313.15 K, x1 = 0.5 | 1109.6 | 365.1
313.15 K, x1 = 0.6 | 1116.9 | 275.4
313.15 K, x1 = 0.8 | 1130.6 | 146
318.15 K, x1 = 0.2 | – | 721.3
318.15 K, x1 = 0.5 | 1106.6 | 262.7
318.15 K, x1 = 0.6 | 1113.9 | 201.5
318.15 K, x1 = 0.8 | 1127.6 | 111.7
323.15 K, x1 = 0.2 | – | 495.6
323.15 K, x1 = 0.4 | 1097.9 | 259.8
323.15 K, x1 = 0.5 | 1103.7 | 193.7
323.15 K, x1 = 0.6 | 1110.9 | 150.8
323.15 K, x1 = 0.8 | 1124.6 | 87.1
328.15 K, x1 = 0.2 | 1080.2 | 349.9
328.15 K, x1 = 0.4 | 1095 | 191.3
328.15 K, x1 = 0.5 | 1100.8 | 145.9
328.15 K, x1 = 0.6 | 1107.9 | 115.2
328.15 K, x1 = 0.8 | 1121.6 | 69.09
333.15 K, x1 = 0.1 | 1070.3 | 378.4
333.15 K, x1 = 0.2 | 1077.3 | 253.4
333.15 K, x1 = 0.4 | 1092 | 144
333.15 K, x1 = 0.5 | 1097.9 | 112
333.15 K, x1 = 0.6 | 1104.9 | 89.66
333.15 K, x1 = 0.8 | 1118.6 | 55.68
338.15 K, x1 = 0.1 | 1067.5 | 271.8
338.15 K, x1 = 0.2 | 1074.4 | 187.6
338.15 K, x1 = 0.4 | 1089.1 | 110.6
338.15 K, x1 = 0.5 | 1095 | 87.65
338.15 K, x1 = 0.6 | 1101.9 | 71.02
338.15 K, x1 = 0.8 | 1115.7 | 45.53
343.15 K, x1 = 0.1 | 1064.8 | 199.9
343.15 K, x1 = 0.2 | 1071.6 | 141.9
343.15 K, x1 = 0.4 | 1086.2 | 86.47
343.15 K, x1 = 0.5 | 1092.1 | 69.7
343.15 K, x1 = 0.6 | 1099 | 57.14
343.15 K, x1 = 0.8 | 1112.7 | 37.72
348.15 K, x1 = 0.1 | 1062.1 | 150.1
348.15 K, x1 = 0.2 | 1068.8 | 109.3
348.15 K, x1 = 0.4 | 1083.3 | 68.73
348.15 K, x1 = 0.5 | 1089.2 | 56.25
348.15 K, x1 = 0.6 | 1096.1 | 46.63
348.15 K, x1 = 0.8 | 1109.7 | 31.62
353.15 K, x1 = 0.1 | 1059.3 | 115
353.15 K, x1 = 0.2 | 1065.9 | 85.68
353.15 K, x1 = 0.4 | 1080.5 | 55.46
353.15 K, x1 = 0.5 | 1086.4 | 46.03
353.15 K, x1 = 0.6 | 1093.2 | 38.55
353.15 K, x1 = 0.8 | 1106.8 | 26.81
358.15 K, x1 = 0.1 | 1056.6 | 89.62
358.15 K, x1 = 0.2 | 1063.1 | 68.25
358.15 K, x1 = 0.4 | 1077.6 | 45.37
358.15 K, x1 = 0.5 | 1083.5 | 38.16
358.15 K, x1 = 0.6 | 1090.3 | 32.27
358.15 K, x1 = 0.8 | 1103.8 | 22.96
363.15 K, x1 = 0.1 | 1053.8 | 71.03
363.15 K, x1 = 0.2 | 1060.4 | 55.17
363.15 K, x1 = 0.4 | 1074.8 | 37.6
363.15 K, x1 = 0.5 | 1080.6 | 32.02
363.15 K, x1 = 0.6 | 1087.4 | 27.32
363.15 K, x1 = 0.8 | 1100.9 | 19.87
